Test results from publication PMC7189019.

Assay: On-resin head-to-side-chain macrolactonisation with cyclative cleavage: free Tyr phenol attacks the C-terminal N-acyl-MeNbz (N-acyl-N'-methylurea) resin, 10% DIEA, giving the Tyr phenyl ester
Conditions: the molecule shown is the open-chain precursor, DCM (models 1-4, rt; 1 and 4 retried in DMF at 60 C), DMF (BPC822, 60 C), scale: 1=cyclic product detected, 0=not detected

CCCCCC(=O)N[C@@H](Cc1ccc(O)cc1)C(=O)N1CCC[C@H]1C(=O)N[C@@H](Cc1ccccc1)C(=O)N[C@H](C(=O)N[C@H](C(=O)NCC(=O)n1c(=O)n(C)c2ccc(C(=O)NCC(N)=O)cc21)C(C)C)[C@@H](C)CC
ring closure, product found (23-membered ring): 0

CC[C@H](C)[C@H](NC(=O)[C@@H](Cc1ccc(OC(C)(C)C)cc1)NC(=O)[C@H](CCC(=O)NC(c1ccccc1)(c1ccccc1)c1ccccc1)NC(=O)[C@@H]1CCCN1C(=O)[C@@H](NC(=O)[C@H](CCC(=O)OC(C)(C)C)NC(=O)[C@@H](NC(=O)[C@H](Cc1ccc(O)cc1)NC(=O)OC(C)(C)C)[C@@H](C)OC(C)(C)C)C(C)C)C(=O)n1c(=O)n(C)c2ccc(C(=O)NCC(N)=O)cc21
ring closure, product found (29-membered ring, 0.5 h): 1

CCCCCC(=O)N[C@@H](Cc1ccc(O)cc1)C(=O)NCC(=O)N[C@@H](Cc1ccccc1)C(=O)N[C@@H](C)C(=O)N1CCC[C@H]1C(=O)N[C@@H](C)C(=O)N[C@H](C(=O)N[C@H](C(=O)NCC(=O)n1c(=O)n(C)c2ccc(C(=O)NCC(N)=O)cc21)C(C)C)[C@@H](C)CC
ring closure, product found (32-membered ring): 0

CCCCCC(=O)N[C@@H](Cc1ccc(O)cc1)C(=O)N[C@@H](C)C(=O)N[C@@H](CC(C)C)C(=O)N1CCC[C@H]1C(=O)N[C@@H](Cc1ccccc1)C(=O)N[C@H](C(=O)N[C@H](C(=O)NCC(=O)n1c(=O)n(C)c2ccc(C(=O)NCC(N)=O)cc21)C(C)C)[C@@H](C)CC
ring closure, product found (29-membered ring): 1

CCCCCC(=O)N[C@@H](Cc1ccc(O)cc1)C(=O)N[C@@H](CC(C)C)C(=O)N1CCC[C@H]1C(=O)N[C@@H](Cc1ccccc1)C(=O)N[C@H](C(=O)N[C@H](C(=O)NCC(=O)n1c(=O)n(C)c2ccc(C(=O)NCC(N)=O)cc21)C(C)C)[C@@H](C)CC
ring closure, product found (26-membered ring): 1
